Data as given in PubChem BioAssay (NCI).
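Test compounds were applied to cells in 96-well plates for 48 hours at 5 doses. TGI marks complete inhibition of growth.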

Legend:
Assay in all cases: growth of human tumour cells (NCI), 48 h
786-0 renal = system: 786-0 renal
ACHN renal = system: ACHN renal
DU-145 prostate = system: DU-145 prostate
EKVX NSCLC = system: EKVX NSCLC
HCT-116 colon = system: HCT-116 colon
IGROV1 ovarian = system: IGROV1 ovarian
MCF7 breast = system: MCF7 breast
OVCAR-4 ovarian = system: OVCAR-4 ovarian
SK-OV-3 ovarian = system: SK-OV-3 ovarian
SN12C renal = system: SN12C renal
SNB-19 CNS = system: SNB-19 CNS
UO-31 renal = system: UO-31 renal

Row | Compound | TGI (786-0 renal) | TGI (ACHN renal) | TGI (DU-145 prostate) | TGI (EKVX NSCLC) | TGI (HCT-116 colon) | TGI (IGROV1 ovarian) | TGI (MCF7 breast) | TGI (OVCAR-4 ovarian) | TGI (SK-OV-3 ovarian) | TGI (SN12C renal) | TGI (SNB-19 CNS) | TGI (UO-31 renal)
1 | CCSc1nc(N/N=C/c2cccs2)c2cnn(CO)c2n1 | 6.34 µM | 22.6 µM | 24.3 µM | 25.6 µM | 16.6 µM | 10.7 µM | 14.4 µM | > 100 µM | 29.4 µM | 30.6 µM | 27.1 µM | 10.2 µM
2 | CCOS(=O)(=O)c1ccc(-c2c3nc(c(-c4ccc(S(=O)(=O)OCC)cc4)c4ccc([nH]4)c(-c4ccc(S(=O)(=O)OCC)cc4)c4nc(c(-c5ccc(S(=O)(=O)OCC)cc5)c5ccc2[nH]5)C=C4)C=C3)cc1 | > 31.6 µM | > 31.6 µM | > 31.6 µM | > 31.6 µM | > 31.6 µM | > 100 µM | > 31.6 µM | > 31.6 µM | > 31.6 µM | > 31.6 µM | > 31.6 µM | > 31.6 µM
3 | Cc1ccc(S(=O)(=O)N(CCNC(=O)c2cccc(O)c2O)c2cc3c4c(c2)Oc2cccc5c2C4(C)c2c(cccc2O3)O5)cc1 | > 100 µM | > 100 µM | > 100 µM | > 100 µM | > 100 µM | > 100 µM | > 100 µM | > 100 µM | > 100 µM | > 100 µM | > 100 µM | > 100 µM
4 | COc1ccc(Nc2nc(N)c(C(=O)c3ccc(Cl)cc3)s2)cc1 | 11.2 µM | 31.5 µM | 0.0558 µM | > 100 µM | 6.64 µM | 17.7 µM | > 32.9 µM | 2.65 µM | 20.4 µM | 22.3 µM | 31.2 µM | 16 µM
5 | CCOC(=O)NN(C(=O)OCC)C(C(=O)c1ccccc1)N(NC(=O)OCC)C(=O)OCC | > 100 µM | > 100 µM | > 100 µM | > 100 µM | > 100 µM | > 100 µM | > 100 µM | > 100 µM | > 100 µM | > 100 µM | > 100 µM | > 100 µM
6 | COC(=O)c1ccccc1C1CN=NC12Cc1ccc3c(c1C2=O)CCC3 (centres undefined) | > 100 µM | > 100 µM | > 100 µM | > 100 µM | > 100 µM | > 100 µM | > 100 µM | > 100 µM | > 100 µM | > 100 µM | > 100 µM | > 100 µM
7 | CN1C(=O)C23CCCC2CC1(c1ccccc1)S3 (centres undefined) | > 100 µM | > 100 µM | > 100 µM | > 100 µM | > 100 µM | > 100 µM | > 100 µM | > 100 µM | > 100 µM | > 100 µM | > 100 µM | > 100 µM
8 | CCN(CC)CCC1CCCCN1CC(=O)N1c2cc(Cl)ccc2NC(=O)CC1C (centres undefined) | > 100 µM | > 100 µM | > 100 µM | > 100 µM | > 100 µM | > 100 µM | > 100 µM | > 100 µM | > 100 µM | > 100 µM | > 100 µM | > 100 µM
9 | Cc1ccnc(Nc2[nH]c(C(=O)c3ccc(Cl)cc3)c(N)c2C(=S)Nc2ccccc2)c1 | 34.8 µM | 55.8 µM | 63.7 µM | 44.6 µM | 30 µM | 30.9 µM | 31.5 µM | 29.4 µM | 35 µM | 31 µM | 64.1 µM | 37.2 µM
10 | Fc1ccc(C(OCCN2CCC3CCC(C2)N3C/C=C/c2cccs2)c2ccc(F)cc2)cc1 (centres undefined) | 20.8 µM | 24.1 µM | 26 µM | 16.5 µM | 16.3 µM | 21.6 µM | 21.5 µM | 22.5 µM | 26.3 µM | 18 µM | 27.9 µM | 24.3 µM
11 | Cc1cc(C)n(-c2nc(C)c(CCO)c(=O)[nH]2)n1 | > 100 µM | > 100 µM | > 100 µM | > 100 µM | > 100 µM | > 100 µM | > 100 µM | > 100 µM | > 100 µM | > 100 µM | > 100 µM | > 100 µM
12 | O=C(O)c1nn(-c2ccccc2)nc1-c1nn(-c2ccccc2)nc1C(=O)O | > 100 µM | > 100 µM | > 100 µM | > 100 µM | > 100 µM | > 100 µM | > 100 µM | > 100 µM | > 100 µM | > 100 µM | > 100 µM | > 100 µM
